Earlier results as cited in patent publication US20210085696A1, “FORMULATIONS COMPRISING CHELATORS, PERMEATION ENHANCERS AND HYDROXYETHYL CELLULOSE FOR TREATING OPHTHALMIC DISORDERS” (LIVIONEX, Inc., priority 2018, published 2021).

Conditions: @ 79° F.

Q: For `CS(C)(=O)=O` [MSM, methylsulfonylmethane], which water solubility is on record?
A: Its water solubility is 34 % w/v.
